Literature values as cited in patent publication US8324158B2, “Methods for inhibiting CLC-2 channel with GATX2” (Georgia Tech Research Corporation, priority 2006, dated 2012).

Molecular target: ClC-1 (Homo sapiens, UniProt P35523)
Sequence (P35523 whole entry, species assumed): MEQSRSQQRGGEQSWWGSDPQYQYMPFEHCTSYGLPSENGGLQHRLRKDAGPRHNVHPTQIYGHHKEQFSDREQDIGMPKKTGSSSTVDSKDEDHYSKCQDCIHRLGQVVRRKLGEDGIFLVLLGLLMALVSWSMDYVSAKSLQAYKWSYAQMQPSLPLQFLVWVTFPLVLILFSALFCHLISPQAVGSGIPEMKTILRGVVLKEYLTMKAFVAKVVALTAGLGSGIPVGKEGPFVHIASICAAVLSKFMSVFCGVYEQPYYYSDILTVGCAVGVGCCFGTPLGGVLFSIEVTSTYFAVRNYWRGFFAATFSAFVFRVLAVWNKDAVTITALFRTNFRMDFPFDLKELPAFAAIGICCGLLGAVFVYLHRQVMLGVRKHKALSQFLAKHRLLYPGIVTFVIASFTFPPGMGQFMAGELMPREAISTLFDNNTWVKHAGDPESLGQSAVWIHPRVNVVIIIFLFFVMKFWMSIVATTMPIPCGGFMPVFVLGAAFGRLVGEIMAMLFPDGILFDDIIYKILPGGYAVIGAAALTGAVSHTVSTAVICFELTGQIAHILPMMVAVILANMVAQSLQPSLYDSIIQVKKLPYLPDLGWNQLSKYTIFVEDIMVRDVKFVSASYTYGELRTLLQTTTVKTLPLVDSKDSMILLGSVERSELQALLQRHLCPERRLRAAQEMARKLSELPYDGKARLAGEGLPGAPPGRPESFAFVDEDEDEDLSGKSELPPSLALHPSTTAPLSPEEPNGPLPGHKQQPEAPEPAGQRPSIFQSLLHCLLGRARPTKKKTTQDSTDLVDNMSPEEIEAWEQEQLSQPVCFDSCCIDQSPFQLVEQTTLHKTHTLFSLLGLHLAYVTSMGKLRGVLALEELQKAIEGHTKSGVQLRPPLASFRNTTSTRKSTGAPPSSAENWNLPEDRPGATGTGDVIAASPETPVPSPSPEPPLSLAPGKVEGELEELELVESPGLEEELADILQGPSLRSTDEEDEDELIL

In the case of CC(Oc1ccc(Cl)cc1)C(=O)O (stereo not shown) [CPP], the Kd is listed as 15 µM.
